This passage reports activity and Kd results from PMC6478789, “A chemical toolbox for the study of bromodomains and epigenetic signaling” (Nature Communications, 2019).

For test [1], the target named is EP300 (Homo sapiens, UniProt Q09472). Description: Histone acetyltransferase (HAT) activity assay. In kind it is biochemical. To be noted: read-out: HATs Activity (%).
Target sequence in this assay (Q09472 whole entry, species assumed): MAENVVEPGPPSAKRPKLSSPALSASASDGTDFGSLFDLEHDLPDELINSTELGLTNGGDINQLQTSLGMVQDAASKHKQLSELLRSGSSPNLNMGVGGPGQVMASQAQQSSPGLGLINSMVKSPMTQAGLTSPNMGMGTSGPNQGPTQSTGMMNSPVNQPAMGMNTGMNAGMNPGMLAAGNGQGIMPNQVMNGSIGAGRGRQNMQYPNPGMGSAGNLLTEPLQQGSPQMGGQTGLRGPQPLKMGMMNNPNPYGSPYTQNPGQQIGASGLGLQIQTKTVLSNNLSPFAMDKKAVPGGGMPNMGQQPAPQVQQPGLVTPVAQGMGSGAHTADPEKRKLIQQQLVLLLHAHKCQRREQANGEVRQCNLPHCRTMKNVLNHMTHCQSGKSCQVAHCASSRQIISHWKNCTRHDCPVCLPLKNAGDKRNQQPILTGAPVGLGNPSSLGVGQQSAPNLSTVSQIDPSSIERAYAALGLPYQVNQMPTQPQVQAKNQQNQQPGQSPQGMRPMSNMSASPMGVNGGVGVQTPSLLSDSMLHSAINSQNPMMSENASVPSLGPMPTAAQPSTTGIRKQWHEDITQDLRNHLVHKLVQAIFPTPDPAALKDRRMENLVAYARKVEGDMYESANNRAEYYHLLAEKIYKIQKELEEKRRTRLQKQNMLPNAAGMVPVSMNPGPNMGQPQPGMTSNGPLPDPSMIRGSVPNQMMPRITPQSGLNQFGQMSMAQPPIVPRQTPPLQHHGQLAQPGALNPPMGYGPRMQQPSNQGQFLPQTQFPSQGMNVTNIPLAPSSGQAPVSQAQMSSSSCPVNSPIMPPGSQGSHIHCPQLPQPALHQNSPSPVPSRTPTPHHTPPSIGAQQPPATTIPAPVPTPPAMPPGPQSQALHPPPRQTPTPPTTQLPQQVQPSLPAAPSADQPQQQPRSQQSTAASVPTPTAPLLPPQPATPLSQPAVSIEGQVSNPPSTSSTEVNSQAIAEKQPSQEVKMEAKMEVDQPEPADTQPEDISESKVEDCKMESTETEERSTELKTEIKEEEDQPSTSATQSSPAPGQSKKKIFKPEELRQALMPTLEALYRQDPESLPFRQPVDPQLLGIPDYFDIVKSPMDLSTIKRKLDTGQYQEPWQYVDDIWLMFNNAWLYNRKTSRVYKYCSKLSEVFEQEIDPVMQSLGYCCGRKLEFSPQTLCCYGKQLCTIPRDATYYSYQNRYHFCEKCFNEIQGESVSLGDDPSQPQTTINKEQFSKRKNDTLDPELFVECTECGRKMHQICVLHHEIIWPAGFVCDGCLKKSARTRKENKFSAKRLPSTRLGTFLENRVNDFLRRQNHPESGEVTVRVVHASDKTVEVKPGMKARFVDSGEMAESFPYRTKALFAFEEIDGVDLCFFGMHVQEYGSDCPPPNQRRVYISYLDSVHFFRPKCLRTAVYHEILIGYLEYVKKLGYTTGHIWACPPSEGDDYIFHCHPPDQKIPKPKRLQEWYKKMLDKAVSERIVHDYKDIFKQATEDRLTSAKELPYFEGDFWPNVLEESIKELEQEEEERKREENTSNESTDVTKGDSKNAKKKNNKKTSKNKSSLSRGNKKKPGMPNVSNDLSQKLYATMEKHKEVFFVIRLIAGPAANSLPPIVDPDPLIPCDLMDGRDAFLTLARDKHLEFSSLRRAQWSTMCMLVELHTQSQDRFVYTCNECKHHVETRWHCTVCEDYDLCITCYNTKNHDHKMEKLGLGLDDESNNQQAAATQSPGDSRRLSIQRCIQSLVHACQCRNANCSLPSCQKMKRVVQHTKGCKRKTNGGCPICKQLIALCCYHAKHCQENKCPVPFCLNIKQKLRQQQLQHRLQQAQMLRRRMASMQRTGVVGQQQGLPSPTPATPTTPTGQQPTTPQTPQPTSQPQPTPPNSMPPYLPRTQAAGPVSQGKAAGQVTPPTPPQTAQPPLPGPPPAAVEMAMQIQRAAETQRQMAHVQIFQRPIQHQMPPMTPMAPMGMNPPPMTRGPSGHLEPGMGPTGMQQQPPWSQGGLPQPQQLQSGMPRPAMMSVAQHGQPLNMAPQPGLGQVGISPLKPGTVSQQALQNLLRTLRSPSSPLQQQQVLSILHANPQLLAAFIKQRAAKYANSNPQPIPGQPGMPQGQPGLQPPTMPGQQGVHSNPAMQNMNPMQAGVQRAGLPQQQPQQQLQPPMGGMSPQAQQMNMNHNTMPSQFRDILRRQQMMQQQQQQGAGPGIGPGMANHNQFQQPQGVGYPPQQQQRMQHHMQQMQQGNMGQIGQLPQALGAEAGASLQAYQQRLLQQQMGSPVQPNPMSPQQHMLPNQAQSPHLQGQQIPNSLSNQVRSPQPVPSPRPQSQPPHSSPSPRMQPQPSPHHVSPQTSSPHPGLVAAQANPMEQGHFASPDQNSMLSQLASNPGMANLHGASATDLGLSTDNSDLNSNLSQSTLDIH
Test [2] addresses T1, HAT1 (Homo sapiens, UniProt O14929).
T1 sequence (O14929 1-419): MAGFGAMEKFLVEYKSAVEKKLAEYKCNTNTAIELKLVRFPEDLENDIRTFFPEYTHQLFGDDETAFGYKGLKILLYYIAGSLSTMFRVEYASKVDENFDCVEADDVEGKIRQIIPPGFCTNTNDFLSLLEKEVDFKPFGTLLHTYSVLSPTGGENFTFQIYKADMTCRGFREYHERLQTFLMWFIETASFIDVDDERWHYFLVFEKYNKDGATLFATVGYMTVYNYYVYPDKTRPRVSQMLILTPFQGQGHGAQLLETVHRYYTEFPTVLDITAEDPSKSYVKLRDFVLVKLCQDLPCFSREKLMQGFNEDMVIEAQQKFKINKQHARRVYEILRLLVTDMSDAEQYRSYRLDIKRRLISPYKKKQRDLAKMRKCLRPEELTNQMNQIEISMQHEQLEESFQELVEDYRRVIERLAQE
As to the kind of experiment: Histone acetyltransferase (HAT) activity assay. Type of test: biochemical. The following applies: read-out: HATs Activity (%).

Test [3] concerns the target T2, MYST1 (Homo sapiens, UniProt Q9H7Z6).
T2 sequence (Q9H7Z6 1-458): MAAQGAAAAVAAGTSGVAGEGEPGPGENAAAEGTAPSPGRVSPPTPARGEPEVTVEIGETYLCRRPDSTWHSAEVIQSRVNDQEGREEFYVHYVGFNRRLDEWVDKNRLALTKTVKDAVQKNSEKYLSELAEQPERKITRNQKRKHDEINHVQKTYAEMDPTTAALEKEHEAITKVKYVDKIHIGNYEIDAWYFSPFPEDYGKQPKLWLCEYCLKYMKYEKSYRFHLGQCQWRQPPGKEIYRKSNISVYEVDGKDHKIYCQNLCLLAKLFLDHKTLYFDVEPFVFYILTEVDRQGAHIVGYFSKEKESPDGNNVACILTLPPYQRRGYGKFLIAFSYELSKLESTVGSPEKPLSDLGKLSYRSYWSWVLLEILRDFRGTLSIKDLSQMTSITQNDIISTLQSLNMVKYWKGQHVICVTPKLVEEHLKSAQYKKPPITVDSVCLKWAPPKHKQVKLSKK
As to the kind of experiment: Histone acetyltransferase (HAT) activity assay. Type of test: biochemical. The following applies: read-out: HATs Activity (%).

Test [4] has as its target MYST3 (Homo sapiens, UniProt Q92794). Description: Histone acetyltransferase (HAT) activity assay. To be noted: read-out: HATs Activity (%). Type of test: biochemical.
For test [5], the target named is GCN5L2 (Homo sapiens, UniProt Q92830). As to the kind of experiment: Histone acetyltransferase (HAT) activity assay. To be noted: read-out: HATs Activity (%). In kind it is biochemical.
Test [6] deals with T3, ATAD2A (Homo sapiens, UniProt Q6PL18).
T3 sequence (Q6PL18 980-1092 limits assumed): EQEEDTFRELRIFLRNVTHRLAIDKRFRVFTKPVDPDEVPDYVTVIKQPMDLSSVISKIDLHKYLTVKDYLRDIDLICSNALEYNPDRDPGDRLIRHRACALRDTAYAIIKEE
As to the kind of experiment: BROMOscan ligand-binding assay.
Description: (§1) BROMOscan is a binding assay based on the well-known KINOMEscan technology. This assay measures the binding of a DNA-tagged bromodomain to an immobilized BRD ligand. If an inhibitor is present, it will compete with the bromodomain binding to the immobilized ligand, resulting in reduction of a quantitative PCR (qPCR) signal in a dose-dependent manner.

Test [7] addresses T4, ATAD2B (Homo sapiens, UniProt Q9ULI0).
T4 sequence (Q9ULI0 951-1066 limits assumed): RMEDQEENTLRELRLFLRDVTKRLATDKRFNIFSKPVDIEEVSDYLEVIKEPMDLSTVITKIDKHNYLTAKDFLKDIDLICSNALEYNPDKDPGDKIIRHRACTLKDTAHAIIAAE
Description: BROMOscan ligand-binding assay.
Description: as §1

Test [8] addresses T5, BAZ2A (Homo sapiens, UniProt Q9UIF9).
T5 sequence (Q9UIF9 1793-1897 limits assumed): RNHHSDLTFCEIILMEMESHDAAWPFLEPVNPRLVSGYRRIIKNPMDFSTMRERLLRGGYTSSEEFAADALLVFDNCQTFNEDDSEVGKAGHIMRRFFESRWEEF
Description: BROMOscan ligand-binding assay. The following applies: BROMOscan Gene Symbol BAZ2A.
Description: as §1

The target of test [9] is T6, BAZ2B (Homo sapiens, UniProt Q9UIF8).
T6 sequence (Q9UIF8 2060-2164 limits assumed): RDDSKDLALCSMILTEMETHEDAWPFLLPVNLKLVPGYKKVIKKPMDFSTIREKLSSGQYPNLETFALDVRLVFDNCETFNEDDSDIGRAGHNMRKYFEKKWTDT
Description: BROMOscan ligand-binding assay.
Description: as §1

Test [10] has as its target T7, BRD1 (Homo sapiens, UniProt O95696).
T7 sequence (O95696 562-666 limits assumed): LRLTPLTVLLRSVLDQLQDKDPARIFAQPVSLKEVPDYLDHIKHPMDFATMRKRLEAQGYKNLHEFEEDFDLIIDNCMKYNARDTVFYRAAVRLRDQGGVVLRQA
Description: BROMOscan ligand-binding assay. To be noted: BROMOscan Gene Symbol BRD1.
Description: as §1

For test [11], the target named is BRD2(1) (Homo sapiens, UniProt P25440). As to the kind of experiment: BROMOscan ligand-binding assay. The following applies: BROMOscan Gene Symbol BRD2(1).
Description: as §1
The target in test [12] is BRD2(2) (Homo sapiens, UniProt P25440). Description: BROMOscan ligand-binding assay. To be noted: BROMOscan Gene Symbol BRD2(2).
Description: as §1
The target of test [13] is BRD3(1) (Homo sapiens, UniProt Q15059). Description: BROMOscan ligand-binding assay. The following applies: BROMOscan Gene Symbol BRD3(1).
Description: as §1
In test [14] the target is BRD3(2) (Homo sapiens, UniProt Q15059). Description: BROMOscan ligand-binding assay. The following applies: BROMOscan Gene Symbol BRD3(2).
Description: as §1
Test [15] has as its target T8, BRD9 (Homo sapiens, UniProt Q9H8M2).
T8 sequence (Q9H8M2 136-240 limits assumed): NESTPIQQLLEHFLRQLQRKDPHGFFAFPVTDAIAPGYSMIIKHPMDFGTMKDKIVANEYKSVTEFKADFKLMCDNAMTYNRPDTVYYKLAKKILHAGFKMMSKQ
As to the kind of experiment: BROMOscan ligand-binding assay. The following applies: BROMOscan Gene Symbol BRD9.
Description: as §1

Test [16] addresses BRDT(1) (Homo sapiens, UniProt Q58F21). As to the kind of experiment: BROMOscan ligand-binding assay. The following applies: BROMOscan Gene Symbol BRDT(1).
Description: as §1
The target of test [17] is BRDT(2) (Homo sapiens, UniProt Q58F21). Description: BROMOscan ligand-binding assay. The following applies: BROMOscan Gene Symbol BRDT(2).
Description: as §1
Test [18] deals with T9, BRPF1 (Homo sapiens, UniProt P55201).
T9 sequence (P55201 628-732 limits assumed): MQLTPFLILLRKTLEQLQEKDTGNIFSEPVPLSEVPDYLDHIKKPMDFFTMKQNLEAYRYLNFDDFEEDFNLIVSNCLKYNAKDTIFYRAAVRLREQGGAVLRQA
As to the kind of experiment: BROMOscan ligand-binding assay. To be noted: BROMOscan Gene Symbol BRPF1.
Description: as §1

Test [19] addresses T10, BRPF3 (Homo sapiens, UniProt Q9ULD4).
T10 sequence (Q9ULD4 589-693 limits assumed): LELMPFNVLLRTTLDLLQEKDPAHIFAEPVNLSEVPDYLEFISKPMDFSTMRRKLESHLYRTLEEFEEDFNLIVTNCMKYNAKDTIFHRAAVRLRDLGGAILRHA
As to the kind of experiment: BROMOscan ligand-binding assay.
Description: as §1

The target in test [20] is T11, EP300 (Homo sapiens, UniProt Q09472).
T11 sequence (Q09472 1049-1156 limits assumed): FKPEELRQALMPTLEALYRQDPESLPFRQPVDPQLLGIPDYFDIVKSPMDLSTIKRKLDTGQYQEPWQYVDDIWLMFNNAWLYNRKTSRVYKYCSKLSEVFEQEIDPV
Description: BROMOscan ligand-binding assay. To be noted: BROMOscan Gene Symbol EP300.
Description: as §1

The target of test [21] is FALZ (Homo sapiens, UniProt Q12830). As to the kind of experiment: BROMOscan ligand-binding assay.
Description: as §1
Test [22] concerns the target PBRM1(2) (Homo sapiens, UniProt Q86U86). As to the kind of experiment: BROMOscan ligand-binding assay. To be noted: BROMOscan Gene Symbol PBRM1(2).
Description: as §1
Test [23] concerns the target T12, TAF1(2) (Homo sapiens, UniProt P21675).
T12 sequence (P21675 1519-1628 limits assumed): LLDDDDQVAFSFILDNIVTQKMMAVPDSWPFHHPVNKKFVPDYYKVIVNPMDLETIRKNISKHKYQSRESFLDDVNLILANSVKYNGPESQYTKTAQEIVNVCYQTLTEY
Description: BROMOscan ligand-binding assay. To be noted: BROMOscan Gene Symbol TAF1(2).
Description: as §1

Test [24] concerns the target T13, TAF1L(2) (Homo sapiens, UniProt Q8IZX4).
T13 sequence (Q8IZX4 1517-1626 limits assumed): T12 sequence (P21675 1519-1628 limits assumed) with V46M, M51V, V102I, L107I
Description: BROMOscan ligand-binding assay. To be noted: BROMOscan Gene Symbol TAF1L(2).
Description: as §1

Test [25] addresses T14, TRIM24(PHD,BRD) (Homo sapiens, UniProt O15164).
T14 sequence (O15164 824-1006 limits assumed): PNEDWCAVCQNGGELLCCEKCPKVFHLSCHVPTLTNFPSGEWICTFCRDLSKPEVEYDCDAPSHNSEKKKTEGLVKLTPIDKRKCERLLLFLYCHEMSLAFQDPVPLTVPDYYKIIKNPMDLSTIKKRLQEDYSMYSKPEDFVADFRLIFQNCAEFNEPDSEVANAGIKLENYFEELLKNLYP
As to the kind of experiment: BROMOscan ligand-binding assay. The following applies: BROMOscan Gene Symbol TRIM24(PHD,Bromo.).
Description: as §1

The target in test [26] is T15, TRIM33(PHD,BRD) (Homo sapiens, UniProt Q9UPN9).
T15 sequence (Q9UPN9 882-1087 limits assumed): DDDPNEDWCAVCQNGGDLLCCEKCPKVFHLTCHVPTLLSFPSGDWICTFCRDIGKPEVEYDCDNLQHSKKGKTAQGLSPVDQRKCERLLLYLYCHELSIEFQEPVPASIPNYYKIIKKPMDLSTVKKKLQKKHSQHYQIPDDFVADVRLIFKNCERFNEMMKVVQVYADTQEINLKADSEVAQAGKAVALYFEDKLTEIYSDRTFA
As to the kind of experiment: BROMOscan ligand-binding assay.
Description: as §1

In test [27] the target is WDR9(2) (Homo sapiens, UniProt Q9NSI6). Description: BROMOscan ligand-binding assay. To be noted: BROMOscan Gene Symbol WDR9(2).
Description: as §1
The mark [28] stands for this setting: read-out: KD (BROMOscan), sheet prints no unit (nM).

Numbering of substitutions follows the chain as printed. pKd: −log10 of the molar value. Where two headings read alike, the source gives them in different places.

Sequence of MYST3 (Q92794 whole entry, species assumed): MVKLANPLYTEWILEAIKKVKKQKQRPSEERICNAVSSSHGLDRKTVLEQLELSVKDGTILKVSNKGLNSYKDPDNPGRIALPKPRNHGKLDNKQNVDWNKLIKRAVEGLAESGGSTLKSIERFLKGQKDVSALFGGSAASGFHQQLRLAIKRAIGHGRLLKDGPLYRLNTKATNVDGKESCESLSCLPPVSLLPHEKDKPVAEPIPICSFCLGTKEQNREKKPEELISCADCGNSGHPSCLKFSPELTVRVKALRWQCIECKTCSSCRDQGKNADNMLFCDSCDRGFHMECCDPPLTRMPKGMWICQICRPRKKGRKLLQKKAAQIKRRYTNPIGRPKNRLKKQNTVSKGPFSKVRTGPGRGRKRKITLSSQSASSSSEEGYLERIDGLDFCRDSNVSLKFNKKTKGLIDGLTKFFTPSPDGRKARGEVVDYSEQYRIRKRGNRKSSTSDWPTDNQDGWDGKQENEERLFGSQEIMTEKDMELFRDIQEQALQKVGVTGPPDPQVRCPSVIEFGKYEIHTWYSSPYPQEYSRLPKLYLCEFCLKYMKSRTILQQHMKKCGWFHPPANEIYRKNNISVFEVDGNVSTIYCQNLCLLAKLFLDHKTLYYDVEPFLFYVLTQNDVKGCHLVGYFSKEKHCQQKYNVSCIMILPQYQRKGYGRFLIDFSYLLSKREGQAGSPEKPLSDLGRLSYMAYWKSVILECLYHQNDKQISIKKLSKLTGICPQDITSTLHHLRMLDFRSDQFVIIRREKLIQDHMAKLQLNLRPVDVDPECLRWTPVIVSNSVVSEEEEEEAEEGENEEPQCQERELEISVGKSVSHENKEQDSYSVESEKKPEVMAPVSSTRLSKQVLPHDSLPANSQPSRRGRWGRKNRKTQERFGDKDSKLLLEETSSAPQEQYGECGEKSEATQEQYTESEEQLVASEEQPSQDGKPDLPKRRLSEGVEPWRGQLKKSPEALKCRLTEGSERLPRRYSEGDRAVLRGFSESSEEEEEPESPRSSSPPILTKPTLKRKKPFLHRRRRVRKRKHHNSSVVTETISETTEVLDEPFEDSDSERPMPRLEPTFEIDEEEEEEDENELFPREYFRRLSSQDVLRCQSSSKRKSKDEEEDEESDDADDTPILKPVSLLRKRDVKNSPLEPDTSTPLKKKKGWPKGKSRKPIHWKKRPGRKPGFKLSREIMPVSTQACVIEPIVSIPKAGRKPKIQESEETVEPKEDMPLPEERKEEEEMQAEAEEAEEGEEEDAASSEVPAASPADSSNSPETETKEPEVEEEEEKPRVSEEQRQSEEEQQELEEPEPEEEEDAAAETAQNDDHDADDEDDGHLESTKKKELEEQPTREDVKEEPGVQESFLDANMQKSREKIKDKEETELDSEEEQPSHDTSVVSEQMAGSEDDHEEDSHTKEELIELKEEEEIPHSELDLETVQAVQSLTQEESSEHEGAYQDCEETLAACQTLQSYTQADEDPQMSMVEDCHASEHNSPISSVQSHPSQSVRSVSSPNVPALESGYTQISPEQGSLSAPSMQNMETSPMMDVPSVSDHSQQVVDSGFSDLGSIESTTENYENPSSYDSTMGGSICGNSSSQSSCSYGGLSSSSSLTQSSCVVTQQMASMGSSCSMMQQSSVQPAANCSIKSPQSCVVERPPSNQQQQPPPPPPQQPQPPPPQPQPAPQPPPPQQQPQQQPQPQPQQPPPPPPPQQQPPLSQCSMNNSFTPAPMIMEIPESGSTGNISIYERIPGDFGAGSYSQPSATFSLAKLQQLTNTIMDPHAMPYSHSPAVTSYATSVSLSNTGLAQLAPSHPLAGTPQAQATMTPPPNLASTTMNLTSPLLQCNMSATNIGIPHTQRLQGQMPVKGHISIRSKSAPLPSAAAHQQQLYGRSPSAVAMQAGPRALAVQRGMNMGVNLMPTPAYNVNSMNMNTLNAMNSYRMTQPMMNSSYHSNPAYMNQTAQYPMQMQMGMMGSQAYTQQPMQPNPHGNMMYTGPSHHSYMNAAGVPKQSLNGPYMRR
Sequence of WDR9(2) (Q9NSI6 1313-1418 limits assumed): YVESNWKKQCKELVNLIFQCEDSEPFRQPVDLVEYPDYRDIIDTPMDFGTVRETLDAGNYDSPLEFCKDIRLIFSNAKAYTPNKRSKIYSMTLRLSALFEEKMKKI
Sequence of BRD2(2) (P25440 344-453 limits assumed): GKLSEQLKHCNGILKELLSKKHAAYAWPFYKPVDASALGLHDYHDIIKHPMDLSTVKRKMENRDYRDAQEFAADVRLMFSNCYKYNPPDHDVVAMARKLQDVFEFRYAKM
Sequence of BRD3(2) (Q15059 306-415 limits assumed): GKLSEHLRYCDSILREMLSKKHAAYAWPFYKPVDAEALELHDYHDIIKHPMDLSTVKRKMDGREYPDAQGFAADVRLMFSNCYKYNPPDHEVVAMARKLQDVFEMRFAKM
Sequence of BRD2(1) (P25440 74-180 limits assumed): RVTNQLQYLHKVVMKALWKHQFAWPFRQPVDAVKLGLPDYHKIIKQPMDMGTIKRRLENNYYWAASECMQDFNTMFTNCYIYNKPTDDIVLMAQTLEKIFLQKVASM
Sequence of PBRM1(2) (Q86U86 177-287 limits assumed): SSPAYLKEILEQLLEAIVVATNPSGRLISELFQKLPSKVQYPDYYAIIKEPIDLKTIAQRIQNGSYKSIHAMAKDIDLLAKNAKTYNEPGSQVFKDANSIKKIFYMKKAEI

For the compound `COc1cc(-c2cn(C)c(=O)c3cnccc23)c(OC)cc1CN(C)C` [BI-9564], the activity at 1 µM turned out to be 99% in test [1]; 99% in test [2]; 106% in test [3]; 99% in [4]; 102% in test [5]. Also, the activity at 10 µM was found to be 94% in [1]; 96% in test [2]; 101% in test [3]; 100% in [4]; 100% in test [5].
`COc1ccc(CCc2nc3cc(-c4c(C)noc4C)ccc3n2CCN2CCOCC2)cc1` [CBP30-383]: the pKd (in general, the Kd on a negative log10 scale, so that one unit is a factor of ten) in test [6] (BROMOscan Gene Symbol ATAD2A) is below 3.82; in test [7] (BROMOscan Gene Symbol ATAD2B), below 4.30; in test [8], 4.12; in test [9] (BROMOscan Gene Symbol BAZ2B), below 4.30; in [10], 4.33; in test [11], 5.82. The pKd in test [12] is 5.44; in [13], 5.85; in [14], 5.34; in test [15], 5.00; in test [16] it was 5.44; in [17], 4.74. Besides, the pKd in test [18] was 4.96; in test [19] (BROMOscan Gene Symbol BRPF3) it was below 4.30; in test [20], 7.36; in test [21] (BROMOscan Gene Symbol FALZ), below 4.30; in test [22] it was 4.36; in [23] it was 5.80. Moreover, the pKd in test [24] is 4.85; in test [25], 4.59; in test [26] (BROMOscan Gene Symbol TRIM33(PHD,Bromo.)) it was below 4.30; in test [27], 4.39. The Kd in test [6] (setting [28]), in [7] (setting [28]), in test [9] (setting [28]), in test [19] (setting [28]), in [21] (setting [28]) and in test [26] (setting [28]) was above 30000 nM each time.
For the compound `CC(=O)c1cc(-c2cc(C(=O)NC3CC3)ccc2C)c2ncccn12` [TP-472], the activity at 1 µM in [1] came out at 95%; in test [2], 98%; in test [3], 100%; in test [4] it was 99%; in test [5], 94%. In addition, the activity at 10 µM in [1] was found to be 96%; in test [2], 97%; in [3], 103%; in [4], 98%; in [5], 92%.
